The source of these data is patent US8617567B2, “Fungus polyose composition with immunity enhancing effect and application thereof” (priority 2009, dated 2013).

For the data set, the system named is S180 cancer bearing mice. Conditions: S180 NIH mice, 100 mg/kg intraperitoneal, 2 times per week, 11 days. The protocol:
85 healthy NIH mice, unisexual, were selected. […] The other 55 mice were used for solid tumor test.
At the beginning of the experiment, 20 mice with ascites were selected and sacrificed by pulling the cervical vertebrae on a sterilized bench, then the abdomens were sterilized with iodine tinctur, 75% alcohol q-tips in turn. The ascites were collected with 3 ml asepsis disposable syringe and put in asepsis dry conical flask and stored on the ice. […] It should be noted that the ascites collected were a milk-yellow or milk-white fluid, and the ascites with a larger quantity of RBC should be discarded. After the ascites were diluted 100 times, the cell density was measured to about 2×10^7/ml by the method of Trypan Blue count. The ascites were diluted with saline. The diluted ascites were subcutaneously injected, at a dosage of 0.2 ml, into the right armpit of each mouse.
After all qualified 55 mice were injected, they were randomly divided into 5 groups: the blank control group, the compound fungus polyose low-, medium-, and high-dosage groups, and the positive cyclophosphamide control group, respectively. 11 mice were in each group. […] After 11 days of administration, all mice were sacrificed and their body weights, tumor weights, thymic weights, and spleen weights were measured. After the end of the experiment, statistical treatment of data was carried out to compare the difference among the groups. Thymus (spleen) index=Thymus (spleen) weight/Body weight×10 g Body Weight Changes=Body weight after administration−Body weight before administration Inhibition ratio %=(Tumor weight in blank group−Tumor weight in treatment group)/Tumor weight in blank group×100% 4.2 Mice Immune Function Test 4.2.1 Mice Carbon Clearance Test

SMILES strings stand for the structures.

On to `O=P1(N(CCCl)CCCl)NCCCO1` (centres unmarked) [Cyclophosphamide], for which the “Condition of thymus and spleen” value is “obvious atrophy”; the Spleen index is 0.0322 ± 0.0190 g/10 g; the Thymus index is given as 0.0117 ± 0.0041 g/10 g; the Tumor weight was 0.0502 ± 0.0253 g. Besides, the Anti-tumor ratio (vs blank control) is 95.9%.
